Here are results for one substance from US6689764B1, “Treatment of angiogenesis dependent conditions with dextrin sulphate” (priority 1999, dated 2004).

Data set [1] relates to AP5LV human colorectal xenograft. In words: AP5LV human colorectal xenograft in SCID mice. It is filed as in vivo. On the procedure: Dextrin sulphate, 10 mg/kg in 1ml icodextrin was administered every second day to two male SCID micc. Dosing continued for 14 days.
The cell line evaluated, AP5LV, is a variant of an established human colorectal cell line, derived originally from a patient's primary tumour. AP5LV cells have been selected for their ability to both colonise the lungs following intravenous injection and to spontaneously metastasise to the lungs following injection of the cells into the peritoneal muscle wall. AP5LV cells were maintained in vitro in RPMI 1640 culture medium (Gibco, Paisley, UK) containing 10% (v/v) heat inactivated foetal bovine serum (Sigma, Poole, UK) at 37° C. in 5% CO2 and humidified conditions. Cells from semi-confluent monolayers were harvested with 0.025% EDTA, washed twice in the culture medium described above, and re-suspended at 5×10^6/50 μl in sterile phosphate buffered saline, pH 7.4(PBS).
The mice were anaesthetised using Hypnorm(Roche)/Hyponovel(Janssen) and the cell suspension injected into the peritoneal muscle wall of 20 male SCD mice. Mice were electronically tagged for identification purposes (RS Biotech, Tracker), and randomly allocated to two experimental groups (see below). The treatment regime was initiated on day 1 and continued every other day until termination on day 38. […]
Background: Xenograft models place foreign cells or tissue in a host animal.

Data set [2] deals with human placental blood vessels. In words: Placental blood vessel in fibrin clot in vitro angiogenesis assay. It is filed as cell-based. As to conditions: 100 μg/ml, up to day 22. On the procedure: Compounds were tested at a final concentration of 100 μg/ml. The degree of new vessel formation was quantified blind twice a week using a visual analog scale in which 0=no growth, 1=minimal new vessel formation, 2=significant new vessel formation, and 3=dense new vessel formation. An angiogenesis score was derived from each count by dividing the total score (i.e. the sum of all the wells) by the maximum possible score and then expressing the result as a percentage. This graph is representative of 3 experiments with a total of 20 wells/plate/experiment for each compound tested.
Blood vessels (approximately 1-2 mm diameter) were excised from the apical surface of human placentas within 6 h of an elective Caesarean birth. Use of the placentas for these studies were approved by the Ethics Committee of Hammersmith Hospitals Trust, London. The blood vessels were placed in Hank's balanced salt solution and cut into 1-2 mm fragments using fine dissecting forceps and iridectomy scissors. Residual clots were removed and the blood vessels then soaked in Hank's balanced salt solution.
The effect of each compound on new blood vessel formulation was determined by culturing the blood vessels within a fibrin clot in 24-well tissue culture plates. Thirty μl of bovine thrombin (50 NIH U/ml in 0.15 M sodium chloride) was added to each well followed by 1 ml/well of 3 mg/ml bovine fibrinogen in Medium 199. The thrombin and fibrinogen were rapidly mixed and a blood vessel fragment placed in the centre of the well. Fibrin gel formation occurred rapidly and left the vessel suspended within the gel. One ml/well of Medium 199 supplemented with 20% foetal calf serum, 250 IU/ml penicillin and 250 U/ml streptomycin was then added to each well. ε-arnino-n-caproic acid was also added (300 μg/ml) for the first 4 days and twice weekly thereafter (50 μg/ml) in order to prevent dissolution of the fibrin clot. The vessels were cultured at 37° C. in a humidified incubator for 25 days with the media being changed twice weekly.
The degree of new vessel formation was quantified blind twice a week by three different observers using a visual analogue scale in which 0=no growth, 1=very little new vessel formation, 2=significant new vessel formation and 3=dense new vessel formation. An angiogenesis score was derived from the counts undertaken for each well by dividing the total score by the maximum score possible and then expressing the result as a percentage. On each of 3 separate occasions, each compound was tested in 20 replicate wells. […] Some of the fibrin clots were fixed overnight in 10% formalin, paraffin embedded, sectioned for histology and then stained for the endothelial cell markers Factor VIII and CD31. Results are expressed as the mean±sem. A students t-test was used to determine the level of significance.

The next data set deals with SK-HEP-1 cells. The data set is described as follows: In vitro proliferation, MTT uptake. The class given is cell-based, human. On the procedure:
(§1) SK-HEP-1 is a human liver adenocarcinoma with endothelial morphology and ECV304 is a human urinary bladder carcinoma with endothelial-like characteristics. Both cell lines were obtained from the ECACC. HUVEC was provided as a growing culture by TCS Biologicals.
(§2) Cells were grown and prepared in RPMI medium containing 10% FCS and 2mM glutamine. For the in vitro assays, cells were harvested with 0.025% EDTA, washed in the culture medium and plated into 96-well plates at 5×10^3 and 1×10^4 cells/well in a volume of 100 μl. After 24 hours, to allow for cell adherence, the medium was replaced with fresh medium containing dextrin sulphate at concentrations of 0, 1, 5, 10, 50, 100, 500, 1000 μg/ml. After 48 hours, proliferation was assessed by methyl thiazol tetrazolium (MTT) uptake as follows:
(§3) MTT (Sigma) was added to the wells in a 50 μl volume at a concentration of 1mg/ml. After 4 hours incubation the insoluble formazan crystals were solubilised by the addition of 75 μl DMSO/well and the absorbance measured at 550 nm.
(§4) Dextrin sulphate was assessed in two separate experiments. All experiments were performed with two different cell-seeding concentrations. […] To compare between cell lines and experiments, the level of inhibition achieved at the highest concentration evaluated (1000 μg/ml) was calculated as was the significance from the untreated control. (See FIG. 11).

The next data set deals with ECV304 cells. In words: In vitro proliferation, MTT uptake. The class given is cell-based, human. On the procedure:
as §1, §2, §3, §4

The next data set concerns HUVEC cells. The following applies: in vitro, Thornton et al 1999; cited from earlier work.
In another data set the test system is HUVEC cell line. In words: TCS Biologicals Human Angiogenesis Model (tubule formation). It is filed as cell-based. On the procedure:
The effect of sulphated dextrin on vessel formation of the HUVEC cell line was performed by the use of the TCS Biologicals Human Angiogenesis Model. The assay is supplied as a growing culture of the HUVEC cell line together with culture matrix and additional human cells present (the exact nature of the cells is not known) at the earliest stages of tubule formation in a 24-well format. The positive control reagent was a standard stock solution of VEGF and the negative control was Suramin. After removing the well seals, the cultures were examined for cell morphology to confirm their viability.
Growth medium was provided with the kit and was used to make up the sulphated dextrin at concentrations ranging from 0-1000 μg/ml. The existing medium was aspirated from the wells and replaced with medium containing the dextrin sulphate concentrations in a 0.5ml volume. This was placed at 37° C., in a 5% CO2 containing atmosphere. This was repeated on days 4, 7 and 9.
Between days 7-11 cultures were fixed by the enclosed fixative and stained with the mouse monoclonal anti-PECAM-1 antibody at a 1:4000 dilution (present in blocking buffer). 0.5ml of diluted antibody was added per well and incubated for 60 minutes at 37° C. The secondary antibody (goat anti-mouse lgG alkaline phosphatase conjugate) was diluted 1:500 in blocking buffer and added to the wells after washing for 60 minutes at 37° C. After washing the plate the substrate was prepared; BCIP/NBT tablets were dissolved in distilled water and added to the wells. Following incubation for 5-10 minutes the wells were washed and were imaged using the Leica Qwin image analysis software package.

Consider dextrin sulphate, for which the toxicity result in data set [1] (10 mg/kg i.p. every second day, SCID mice) was “no toxicity”. Moreover, the “reduction in final tumour weight” value in data set [1] (10 mg/kg in 4% Icodextrin i.p. every second day, termination day 38, SCID mice) is reported as 28%. Besides, the “new vessel formation compared to media alone” value in data set [2] is recorded as “inhibits new vessel formation”. Moreover, the “inhibition of in vitro growth” value is reported as “moderate levels of inhibition” in the data set with SK-HEP-1 cells (SK-HEP-1, 0-1000 μg/ml, 48 hours) and “moderate levels of inhibition” in the data set on ECV304 cells (ECV304, 0-1000 μg/ml, 48 hours). The “level of inhibition of growth” value is approximately 65% in the data set with SK-HEP-1 cells (SK-HEP-1, 1000 μg/ml, lower cell concentration); “not as great” with SK-HEP-1 cells (SK-HEP-1, higher cell concentration); 11-33% in the data set with ECV304 cells (ECV304, 1000 μg/ml, both cell concentrations, two experiments). Further, the “concentrations at which inhibitory effects were seen” value in the data set with SK-HEP-1 cells (SK-HEP-1, MTT assay) is more than 100 µg/mL; in the data set on ECV304 cells (ECV304, MTT assay), more than 100 µg/mL. Besides, in the data set on HUVEC cells, the “proliferation of HUVEC cells” value was “not to be directly inhibited”. The results for the “branch point number, % of control” value in the data set on HUVEC cell line (1 μg/ml) and with HUVEC cell line (5 μg/ml) were 120% and 115%, respectively. The figures for the “tubule branch points, reduction” value in the data set with HUVEC cell line (1 μg/ml) and in the data set on HUVEC cell line (1000 μg/ml) were 31% and 93%, respectively. For the same substance, the “branch point number, inhibition” value turned out to be 26% with HUVEC cell line (50 μg/ml), 48% with HUVEC cell line (100 μg/ml), 53% in the data set with HUVEC cell line (500 μg/ml) and 68% in the data set with HUVEC cell line (1000 μg/ml). Moreover, the “tubule number, inhibition” value in the data set with HUVEC cell line (100 μg/ml) was determined as 48%; in the data set on HUVEC cell line (1000 μg/ml), 68%. Further, the branch point number result with HUVEC cell line (all concentrations evaluated (1-1000 μg/ml)) is recorded as “inhibitory effect”. Moreover, the tubule number entry with HUVEC cell line (lower concentrations) is given as “low but significant stimulation”.
